Two substances from PMC10571957, “αV-Integrin-Dependent Inhibition of Glioblastoma Cell Migration, Invasion and Vasculogenic Mimicry by the uPAcyclin Decapeptide” (Cancers, 2023) can be followed below.

Where “and” joins values, the source holds several entries; their conditions need not be identical. Identical values can stand only once.

One test deals with U251-MG cells. Description: Boyden chamber migration (chemotaxis), U251-MG. Particulars: for migrated cells n°/field / migration, % of basal / migration, % of basal, average 2 expts / migration, % of basal, average expt 1 / migration, % of basal, average expt 2 / migration, % of basal, T-test list: sheet data scrambled; for migration, % of basal, average 2 expts: mean of 2 expts; for migration, % of basal, average expt 1: mean of expt 1; for migration, % of basal, average expt 2: mean of expt 2; for migration, % of basal, T-test list: single replicates. Type of test: cell-based, human. How it is done:
The migration and invasion assays were performed using Boyden chambers and 8 µm pore size PVP-free filters coated with 50 µg/mL of collagen type VI (Sigma), as previously described. For the invasion assays, collagen-coated filters were further coated with 50 µg/mL Matrigel^TM (Sigma). Briefly, 11 × 10^4 U87-MG, 4 × 10^4 U251-MG, or 4 × 10^4 U138-MG/sample were pre-treated for 40 min at 37 °C with the indicated effectors. Then, the cells were allowed to migrate for 3 h or to invade for 5 h at 37 °C toward 5% FBS in DMEM/0.1% BSA. At the end of both assays, the cells on the lower filter surface were fixed, stained with haematoxylin, and counted under an optical microscope (Zeiss Axiophot, Carl Zeiss, Milan, Italy) at 20× magnification. The migration and invasion experiments were conducted in triplicate for U87-MG and in duplicate for U251-MG and U138-MG. The migrated or invaded cells were reported as percentage of basal migration or invasion in the presence of DMEM/0.1% BSA, taken as 100%, and analyzed as reported in Section 2.11.
Figure 3 Inhibition of U87-MG, U251-MG, and U138-MG GBM cellular migration by uPAcyclin. Quantitative analysis of U87-MG (A), U251-MG (B), and U138-MG (C) directional migration. A total of 11 × 10^4 U87-MG/sample or 4 × 10^4 U251-MG or U138-MG/sample were pre-treated for 40 min at 37 °C with uPAcyclin or S-peptide at the indicated concentrations, anti-αV polyclonal (anti-αV Pclonal) or monoclonal (anti-αV MoAb) antibody, or anti-GAPDH, and anti-α2 monoclonal antibody (anti-α2 MoAb), and then assayed in Boyden chambers at 37 °C, either for basal (BSA) or directional 5% FBS-dependent migration for 3 h at 37 °C. At the end of incubation, the filters were processed as described in Methods. Basal migration was taken as 100% and all values were calculated relative to that (* p-value < 0.05; ** p-value < 0.005; *** p-value < 0.001).

A further test deals with U87-MG cells. The test can be described thus: Vasculogenic mimicry (tube formation on Geltrex), U87-MG. Particulars: for reduction in branching points: 24 h, Geltrex. Type of test: cell-based, human. The method, then:
The tube formation assay was performed in 96-well plates pre-coated with 50 µL/well of Geltrex^TM (Thermofisher, Scientific, Waltham, MA, USA), and polymerized for 30 min at 37 °C. Briefly, 3 × 10^4 U87-MG, 1.5 × 10^4 U251, and 1 × 10^4 C6 cells/100µL/well were plated onto Geltrex^TM and monitored at 37 °C for the indicated times. The specific effectors were included at time 0. The formation of vascular-like structures by Geltrex^TM-plated U87-MG and U251-MG cells was monitored for 24 h, whereas C6 cells were tested for 16 h. The evaluation of the branching point number, defined as the intersection of at least 3 tubes [24], was performed using the Inverted Microscope DMI Leica 6000 for the U87-MG and U251-MG cells and the Inverted Microscope Axiovert 25 for the C6 cells. At the indicated times, the number of “branching points” was assessed in 4/5 random fields using the ImageJ 1.52a Software.
Figure 6 Vascular mimicry formation by U87-MG and effect of uPAcyclin. (A) Representative images of U87-MG cells pre-treated or not (untreated) for 40 min at 37 °C with uPAcyclin (1 nM and 100 nM) and then plated onto Geltrex^TM in multiwell-96 (3 × 10^4/well). As a control, cells were grown in the presence of DMEM/10% FBS (No matrix) or with Geltrex^TM (Untreated, Untd). Images are taken at 24 h using the Inverted Microscope DMI Leica 6000 with 50× total magnification, scale bar: 75 µm. (B) The quantitation of branching points, defined as the intersection of at least three tubes [24], was performed at 4, 8, and 24 h either in control cells and cells pre-treated for 40 min at 37 °C with 10 pM, 1 nM, and 100 nM uPAcyclin before plating onto Geltrex^TM. (C) U87-MG cells were pre-treated with uPAcyclin or with S-uPAcyclin, at the indicated concentrations, plated onto Geltrex^TM and, 24 h later, the number of branching points was evaluated and reported in the histogram (* p-value < 0.05; ** p-value < 0.005; *** p-value < 0.001).

Setting [1] is: 1 nM, 5% FBS, 3 h, expt 1, duplicates.
Setting [2] is: 1 nM, 5% FBS, 3 h, expt 2, duplicates.
Where [3] appears, read: 100 nM, 5% FBS, 3 h, expt 1, duplicates.
Where [4] appears, read: 100 nM, 5% FBS, 3 h, expt 2, duplicates.

Consider “Ac-PS[EELKPEPK]-NH2 (sidechain bridge or staple) [S-uPAcyclin, scrambled control peptide]”, for which, in the test on U251-MG cells (1 nM), the “migration, % of the basal, average all expts” value (“migration, % of the basal” for short) was found to be 176%; the “migration, % of basal, average 2 expts” value is on record as 176.045%; the “migration, % of basal, average expt 1” value stood at 193%; the “migration, % of basal, average expt 2” value turned out to be 159.091%. Further, the “migration, % of basal, T-test list” value with U251-MG cells (1 nM) was 200 and 186 and 145 and 172. Also, in the test on U251-MG cells (setting [1]), the “migrated cells n°/field” value is 28 cells n°/field and 26 cells n°/field; the “migration, % of basal” value was 200% and 186%. Also, in the test with U251-MG cells (setting [2]), the “migrated cells n°/field” value was 32 cells n°/field and 38 cells n°/field; the “migration, % of basal” value was 145% and 172%. Further, in the test on U251-MG cells (100 nM), the “migration, % of the basal” value is 157%; the “migration, % of basal, average 2 expts” value came to 157.432%; the “migration, % of basal, average expt 1” value is 153.5%; the “migration, % of basal, average expt 2” value was found to be 161.364%. Further, in the test with U251-MG cells (100 nM), the “migration, % of basal, T-test list” value was 164 and 143 and 159. Moreover, in the test with U251-MG cells (setting [3]), the “migrated cells n°/field” value is 23 cells n°/field and 20 cells n°/field; the “migration, % of basal” value was 164% and 143%. Further, in the test on U251-MG cells (setting [4]), the “migrated cells n°/field” value was 35 cells n°/field and 36 cells n°/field; the “migration, % of basal” value was 159% and 163%. Further, the “reduction in branching points” value with U87-MG cells (scrambled control, U87-MG) is listed as “approximately 20%”.
With “Ac-K^1P[ESPPEELK^10]-NH2 (sidechain bridge or staple) [uPAcyclin]”, the inhibition of migration in the test with U251-MG cells (1 nM, U251-MG, 5% FBS, 3 h) was 70–80%. Also, the “migration, % of the basal” value in the test with U251-MG cells (1 nM) is listed as 99%. Also, the “migration, in words” value in the test with U251-MG cells (100 nM, U251-MG, 5% FBS, 3 h) is given as “below background levels”. Besides, in the test with U251-MG cells (100 nM), the “migration, % of the basal” value was 83%; the “migration, % of basal, average 2 expts” value is given as 99.2955%; the “migration, % of basal, average expt 1” value stood at 89.5%; the “migration, % of basal, average expt 2” value was 109.091%. Further, the “migration, % of basal, T-test list” value with U251-MG cells (100 nM) is 86 and 93 and 95. For the same substance, in the test on U251-MG cells (setting [3]), the “migrated cells n°/field” value is 12 cells n°/field and 13 cells n°/field; the “migration, % of basal” value is 86% and 93%. Further, in the test on U251-MG cells (setting [4]), the “migrated cells n°/field” value is 27 cells n°/field and 21 cells n°/field; the “migration, % of basal” value is 123% and 95%. Moreover, the “branching point number, in words” value in the test with U87-MG cells (10 pM, 10 nM (legend: 1 nM), 100 nM, U87-MG, 4, 8, 24 h) was “concentration-dependent reduction in the branching point number”. The “reduction in branching points” value with U87-MG cells (1 nM, U87-MG) is reported as “approximately 60%”. The “VM formation by time-lapse videomicroscopy, in words” value with U87-MG cells (100 nM, U87-MG, 14 h, serum-free) is “inhibited and delayed”. Further, the “reduction in branching points” value in the test with U87-MG cells (100 nM, U87-MG) is reported as “approximately 60%”.
